PubChem BioAssay (NCI)
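Method: 48-hour compound exposure of cells in 96-well plates, five concentrations, linear interpolation of endpoints. Here, GI50 denotes the concentration required for 50% inhibition of growth. TGI marks complete inhibition of growth.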

Tests used:
Test in all cases: DTP human tumour cell line panel, 48 h
[1] = tested on: OVCAR-3 ovarian
[2] = tested on: SF-295 CNS
[3] = tested on: KM12 colon
[4] = tested on: MALME-3M melanoma
[5] = tested on: SNB-75 CNS
[6] = tested on: HCT-15 colon
[7] = tested on: CAKI-1 renal
[8] = tested on: NCI-H23 lung
[9] = tested on: OVCAR-8 ovarian
[10] = tested on: RPMI-8226 leukemia

In the case of `O=c1c2c3c(sc2n2c(-c4cc(-c5ccccc5)nn4-c4ccccc4)nnc2n1Cc1ccccc1)CCCC3`, the GI50 [1] is reported as > 100000 nM, the TGI [1] is reported as > 100 µM and the GI50 [2] is reported as > 100000 nM. The TGI [2] was > 100 µM, the GI50 [3] was > 100000 nM and the TGI [3] was > 100 µM. The GI50 [4] was > 100000 nM, the TGI [4] was > 100 µM and the GI50 [5] was 12.1 µM. For the same molecule, the TGI [5] was 56.4 µM, the GI50 [6] was > 100000 nM and the TGI [6] was > 100 µM. The GI50 [7] was > 100000 nM, the TGI [7] was > 100 µM and the GI50 [8] was > 100000 nM. For the same molecule, the TGI [8] was > 100 µM.
`Cn1c2ccccc2c2c(=O)c3ccccc3[nH]c21` was tested, and the GI50 [9] was > 100000 nM, the TGI [9] was > 100 µM and the GI50 [1] was > 100000 nM. The TGI [1] was > 100 µM, the GI50 [10] was 29.6 µM and the TGI [10] was 91.7 µM. For the same molecule, the GI50 [2] was 82800 nM, the TGI [2] was > 100 µM and the GI50 [3] was 22100 nM. For the same molecule, the TGI [3] was > 100 µM, the GI50 [5] was 84.7 µM and the TGI [5] was > 100 µM. The GI50 [6] was 40100 nM, the TGI [6] was > 100 µM and the GI50 [7] was > 100000 nM. The TGI [7] was > 100 µM, the GI50 [8] was 30500 nM and the TGI [8] was > 100 µM.
`CCOC(=O)/C(=C/c1cccc(OC)c1)N(CC)CC` was tested, and the TGI [9] was > 100 µM, the TGI [1] was > 100 µM and the TGI [10] was > 100 µM. For the same molecule, the TGI [2] was > 100 µM, the TGI [3] was > 100 µM and the TGI [6] was > 100 µM. For the same molecule, the TGI [7] was > 100 µM and the TGI [8] was > 100 µM.
In the case of `CCN(CC)CCNC(=O)c1cn2ncnc(Oc3ccc(NC(=O)Nc4ccc(Cl)c(C(F)(F)F)c4)c(F)c3)c2c1C`, the GI50 [9] is reported as 1950 nM, the TGI [9] is reported as 3.96 µM and the GI50 [1] is reported as 1770 nM. It also gave a TGI [1] of 3.21 µM, a GI50 [2] of 1660 nM and a TGI [2] of 3.07 µM. The GI50 [3] was 1570 nM, the TGI [3] was 3.08 µM and the GI50 [4] was 1150 nM. It also gave a TGI [4] of 2.55 µM, a GI50 [5] of 0.412 µM and a TGI [5] of 1.97 µM. For the same molecule, the GI50 [6] was 1460 nM, the TGI [6] was 2.89 µM and the GI50 [7] was 1690 nM. For the same molecule, the TGI [7] was 3.13 µM, the GI50 [8] was 1620 nM and the TGI [8] was 3.17 µM.
For `OC(CN1CC1)C(O)CN1CC1` (configuration not stated), the GI50 [9] was > 50 µg/mL, the TGI [9] was > 50 µg/mL and the GI50 [1] was > 50 µg/mL. The TGI [1] was > 50 µg/mL, the GI50 [2] was > 50 µg/mL and the TGI [2] was > 50 µg/mL. The GI50 [3] was > 50 µg/mL, the TGI [3] was > 50 µg/mL and the GI50 [4] was > 50 µg/mL. The TGI [4] was > 50 µg/mL, the GI50 [6] was > 50 µg/mL and the TGI [6] was > 50 µg/mL. The GI50 [7] was > 50 µg/mL, the TGI [7] was > 50 µg/mL and the GI50 [8] was > 50 µg/mL. The TGI [8] was > 50 µg/mL.
`COC(=O)/C(C#N)=C1\CCC(C(=O)OC)N1C` (configuration not stated) was tested, and the TGI [9] was > 100 µM, the TGI [1] was > 100 µM and the TGI [10] was > 100 µM. The TGI [2] was > 100 µM, the TGI [3] was > 100 µM and the TGI [5] was > 100 µM. For the same molecule, the TGI [6] was > 100 µM, the TGI [7] was > 100 µM and the TGI [8] was > 100 µM.
For `CC1=C(C(=O)Nc2ccccc2C)C(/C=C/c2ccccc2)C(C(=O)Nc2ccccc2C)=C(C)N1`, the TGI [9] was > 100 µM, the TGI [1] was > 100 µM and the TGI [2] was > 100 µM. For the same molecule, the TGI [3] was > 100 µM, the TGI [4] was > 100 µM and the TGI [5] was > 100 µM. For the same molecule, the TGI [6] was > 100 µM, the TGI [7] was > 100 µM and the TGI [8] was > 100 µM.
For `C[C@H]1[C@H](C)CC[C@]2(C(=O)NCCNCCN)CC[C@]3(C)C(=CC[C@@H]4[C@@]5(C)CCC(=O)C(C)(C)[C@@H]5CC[C@]43C)[C@H]12`, the GI50 [1] was 1800 nM, the TGI [1] was 3.3 µM and the GI50 [3] was 1850 nM. The TGI [3] was 3.42 µM, the GI50 [4] was 1640 nM and the TGI [4] was 3.06 µM. The GI50 [6] was 1730 nM, the TGI [6] was 3.29 µM and the GI50 [7] was 1750 nM. For the same molecule, the TGI [7] was 4.01 µM, the GI50 [8] was 2800 nM and the TGI [8] was 8.3 µM.
For `CC1(Cc2ccccc2)NC(=S)NC1=O` (configuration not stated), the TGI [9] was > 100 µM, the TGI [2] was > 100 µM and the TGI [3] was > 100 µM. For the same molecule, the TGI [4] was > 100 µM, the TGI [5] was > 100 µM and the TGI [7] was > 100 µM. For the same molecule, the TGI [8] was > 100 µM.
For `C=C(CN1CCc2ccccc2C1)c1ccc(C(=O)Nc2ccccc2N)cc1`, the GI50 [9] was 1090 nM, the TGI [9] was 13.8 µM and the GI50 [1] was 1380 nM. The TGI [1] was 6.76 µM, the GI50 [10] was 0.793 µM and the TGI [10] was > 12.9 µM. For the same molecule, the GI50 [2] was 1270 nM, the TGI [2] was 3.53 µM and the GI50 [3] was 1260 nM. For the same molecule, the TGI [3] was 4.54 µM, the GI50 [6] was 940 nM and the TGI [6] was 5.11 µM. For the same molecule, the GI50 [7] was 1200 nM, the TGI [7] was 7.69 µM and the GI50 [8] was 677 nM.
In the case of `O=c1ncccn1C1C=C(CO)C(O)C1O` (configuration not stated), the TGI [1] is reported as > 50 µM, the TGI [10] is reported as > 50 µM and the TGI [2] is reported as > 50 µM. For the same molecule, the TGI [3] was > 50 µM, the TGI [4] was > 50 µM and the TGI [6] was > 50 µM. The TGI [7] was > 50 µM and the TGI [8] was > 50 µM.
In the case of `CCSc1nc(N)c2cn[nH]c2n1`, the GI50 [9] is reported as 48700 nM, the TGI [9] is reported as > 100 µM and the GI50 [1] is reported as 22100 nM. The TGI [1] was 72.1 µM, the GI50 [10] was 21.3 µM and the TGI [10] was 49.1 µM. It also gave a GI50 [2] of 32100 nM, a TGI [2] of 85.3 µM and a GI50 [3] of 22000 nM. The TGI [3] was 59.6 µM, the GI50 [4] was 31200 nM and the TGI [4] was 67 µM. For the same molecule, the GI50 [6] was 41700 nM, the TGI [6] was > 100 µM and the GI50 [7] was 22300 nM. For the same molecule, the TGI [7] was 76 µM, the GI50 [8] was 20700 nM and the TGI [8] was 58.9 µM.
In the case of `CCN(CC)CC(=O)N1CCc2c([nH]c3ccccc23)C1c1cccnc1` (configuration not stated), the TGI [9] is reported as > 100 µM, the TGI [1] is reported as > 100 µM and the TGI [10] is reported as > 100 µM. The TGI [2] was > 100 µM, the TGI [3] was > 100 µM and the TGI [5] was > 100 µM. For the same molecule, the TGI [6] was > 100 µM, the TGI [7] was > 100 µM and the TGI [8] was > 100 µM.
In the case of `Cn1c(/C(C#N)=C/c2ccc3ccccc3c2)cc2ccccc21`, the GI50 [9] is reported as 421 nM, the TGI [9] is reported as > 100 µM and the GI50 [10] is reported as 0.311 µM. The TGI [10] was > 100 µM, the GI50 [2] was 110 nM and the TGI [2] was 0.463 µM. The GI50 [3] was 114 nM, the TGI [3] was > 100 µM and the GI50 [5] was 0.0628 µM. For the same molecule, the TGI [5] was > 92.7 µM, the GI50 [6] was 93.4 nM and the TGI [6] was > 100 µM. The GI50 [7] was 60.5 nM, the TGI [7] was > 100 µM and the GI50 [8] was 392 nM. The TGI [8] was > 100 µM.
`C=CCC1[C@@H](C(C)(C)C(C(C)=O)C(=O)C(=O)OC)OC(C(C)(C)C)N1C(=O)OC` (some centres not stated) was tested, and the TGI [9] was > 100 µM, the TGI [1] was > 100 µM and the TGI [2] was > 100 µM. The TGI [3] was > 100 µM, the TGI [4] was > 100 µM and the TGI [5] was > 100 µM. For the same molecule, the TGI [6] was > 100 µM and the TGI [8] was > 100 µM.
